{"source": "PubChem BioAssay (NCI)", "assay_in_all_cases": "DTP human tumour cell line panel, 48 h", "key": {"[1]": {"system": "MDA-MB-231 breast"}, "[2]": {"system": "HT29 colon"}, "[3]": {"system": "LOX IMVI melanoma"}, "[4]": {"system": "UO-31 renal"}, "[5]": {"system": "HCT-15 colon"}, "[6]": {"system": "CAKI-1 renal"}, "[7]": {"system": "SK-MEL-28 melanoma"}, "[8]": {"system": "UACC-257 melanoma"}, "[9]": {"system": "IGROV1 ovarian"}, "[10]": {"system": "NCI-H226 lung"}, "[11]": {"system": "PC-3 prostate"}, "[12]": {"system": "MDA-MB-435"}, "[13]": {"system": "SK-OV-3 ovarian"}, "[14]": {"system": "MALME-3M melanoma"}, "[15]": {"system": "A549 NSCLC"}, "[16]": {"system": "HS 578T breast"}, "[17]": {"system": "NCI-H460 lung"}, "[18]": {"system": "SF-295 CNS"}, "[19]": {"system": "HCC-2998 colon"}, "[20]": {"system": "SR leukemia"}, "[21]": {"system": "HOP-92 NSCLC"}, "[22]": {"system": "SK-MEL-5 melanoma"}, "[23]": {"system": "NCI/ADR-RES ovarian"}, "[24]": {"system": "RXF 393 renal"}, "[25]": {"system": "OVCAR-4 ovarian"}, "[26]": {"system": "786-0 renal"}, "[27]": {"system": "DU-145 prostate"}, "[28]": {"system": "OVCAR-5 ovarian"}, "[29]": {"system": "M14 melanoma"}, "[30]": {"system": "SN12C renal"}, "[31]": {"system": "COLO 205 colon"}, "[32]": {"system": "MCF7 breast"}, "[33]": {"system": "NCI-H23 lung"}, "[34]": {"system": "K-562 leukemia"}, "[35]": {"system": "NCI-H522 lung"}, "[36]": {"system": "SNB-75 CNS"}, "[37]": {"system": "BT-549 breast"}, "[38]": {"system": "SF-539 CNS"}, "[39]": {"system": "HL-60(TB) leukemia"}, "[40]": {"system": "OVCAR-3 ovarian"}, "[41]": {"system": "TK-10 renal"}, "[42]": {"system": "A498 renal"}, "[43]": {"system": "KM12 colon"}, "[44]": {"system": "SW-620 colon"}, "[45]": {"system": "HCT-116 colon"}, "[46]": {"system": "MOLT-4 leukemia"}, "[47]": {"system": "UACC-62 melanoma"}, "[48]": {"system": "CCRF-CEM leukemia"}, "[49]": {"system": "U251 CNS"}, "[50]": {"system": "MDA-MB-468 breast"}, "[51]": {"system": "OVCAR-8 ovarian"}, "[52]": {"system": "SF-268 CNS"}, "[53]": {"system": "HOP-62 NSCLC"}}, "note": "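Each compound was tested at five concentrations against cells in 96-well plates for 48 hours. Here, GI50 denotes the concentration required for 50% inhibition of growth. TGI denotes the concentration required for complete inhibition of growth.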", "data": [{"smiles": "CC[C@@]1(O)C(=O)OCc2c1cc1n(c2=O)Cc2c-1nc1cc(F)c(C)c3c1c2[C@@H](N)CC3", "values": [{"measurement": "GI50", "setting": "[1]", "result": 28.5, "unit": "nM"}, {"measurement": "TGI", "setting": "[1]", "result": 2220, "unit": "nM"}, {"measurement": "GI50", "setting": "[2]", "result": "< 10", "unit": "nM"}, {"measurement": "TGI", "setting": "[2]", "result": 1040, "unit": "nM"}, {"measurement": "GI50", "setting": "[3]", "result": "< 10", "unit": "nM"}, {"measurement": "TGI", "setting": "[3]", "result": 10.1, "unit": "nM"}, {"measurement": "GI50", "setting": "[4]", "result": "< 10", "unit": "nM"}, {"measurement": "TGI", "setting": "[4]", "result": 48.1, "unit": "nM"}, {"measurement": "GI50", "setting": "[5]", "result": 14.6, "unit": "nM"}, {"measurement": "TGI", "setting": "[5]", "result": 4890, "unit": "nM"}, {"measurement": "GI50", "setting": "[6]", "result": "< 10", "unit": "nM"}, {"measurement": "TGI", "setting": "[6]", "result": 74.1, "unit": "nM"}, {"measurement": "GI50", "setting": "[7]", "result": 111, "unit": "nM"}, {"measurement": "TGI", "setting": "[7]", "result": "> 100000", "unit": "nM"}, {"measurement": "GI50", "setting": "[8]", "result": 10.3, "unit": "nM"}, {"measurement": "TGI", "setting": "[8]", "result": 166, "unit": "nM"}, {"measurement": "GI50", "setting": "[9]", "result": 26.1, "unit": "nM"}, {"measurement": "TGI", "setting": "[9]", "result": 1150, "unit": "nM"}, {"measurement": "GI50", "setting": "[10]", "result": "< 10", "unit": "nM"}, {"measurement": "TGI", "setting": "[10]", "result": "< 19.7", "unit": "nM"}, {"measurement": "GI50", "setting": "[11]", "result": 20.6, "unit": "nM"}, {"measurement": "TGI", "setting": "[11]", "result": "> 100000", "unit": "nM"}, {"measurement": "GI50", "setting": "[12]", "result": "< 10", "unit": "nM"}, {"measurement": "TGI", "setting": "[12]", "result": 625, "unit": "nM"}, {"measurement": "GI50", "setting": "[13]", "result": "< 10", "unit": "nM"}, {"measurement": "TGI", "setting": "[13]", "result": 135, "unit": "nM"}, {"measurement": "GI50", "setting": "[14]", "result": 11, "unit": "nM"}, {"measurement": "TGI", "setting": "[14]", "result": 247, "unit": "nM"}, {"measurement": "GI50", "setting": "[15]", "result": "< 10", "unit": "nM"}, {"measurement": "TGI", "setting": "[15]", "result": 456, "unit": "nM"}, {"measurement": "GI50", "setting": "[16]", "result": 221, "unit": "nM"}, {"measurement": "TGI", "setting": "[16]", "result": "> 100000", "unit": "nM"}, {"measurement": "GI50", "setting": "[17]", "result": "< 10", "unit": "nM"}, {"measurement": "TGI", "setting": "[17]", "result": 434, "unit": "nM"}, {"measurement": "GI50", "setting": "[18]", "result": "< 10", "unit": "nM"}, {"measurement": "TGI", "setting": "[18]", "result": 42.5, "unit": "nM"}, {"measurement": "GI50", "setting": "[19]", "result": 12.9, "unit": "nM"}, {"measurement": "TGI", "setting": "[19]", "result": 129, "unit": "nM"}, {"measurement": "GI50", "setting": "[20]", "result": "< 10", "unit": "nM"}, {"measurement": "TGI", "setting": "[20]", "result": "> 100000", "unit": "nM"}, {"measurement": "GI50", "setting": "[21]", "result": "< 10", "unit": "nM"}, {"measurement": "TGI", "setting": "[21]", "result": 192, "unit": "nM"}, {"measurement": "GI50", "setting": "[22]", "result": "< 10", "unit": "nM"}, {"measurement": "TGI", "setting": "[22]", "result": "< 10", "unit": "nM"}, {"measurement": "GI50", "setting": "[23]", "result": "< 10", "unit": "nM"}, {"measurement": "TGI", "setting": "[23]", "result": 21.3, "unit": "nM"}, {"measurement": "GI50", "setting": "[24]", "result": "< 10", "unit": "nM"}, {"measurement": "TGI", "setting": "[24]", "result": "< 13.5", "unit": "nM"}, {"measurement": "GI50", "setting": "[25]", "result": 32.5, "unit": "nM"}, {"measurement": "TGI", "setting": "[25]", "result": "> 100000", "unit": "nM"}, {"measurement": "GI50", "setting": "[26]", "result": "< 10", "unit": "nM"}, {"measurement": "TGI", "setting": "[26]", "result": "< 37", "unit": "nM"}, {"measurement": "GI50", "setting": "[27]", "result": "< 10", "unit": "nM"}, {"measurement": "TGI", "setting": "[27]", "result": "> 100000", "unit": "nM"}, {"measurement": "GI50", "setting": "[28]", "result": "< 12.4", "unit": "nM"}, {"measurement": "TGI", "setting": "[28]", "result": 801, "unit": "nM"}, {"measurement": "GI50", "setting": "[29]", "result": "< 10", "unit": "nM"}, {"measurement": "TGI", "setting": "[29]", "result": 27.9, "unit": "nM"}, {"measurement": "GI50", "setting": "[30]", "result": "< 10", "unit": "nM"}, {"measurement": "TGI", "setting": "[30]", "result": 145, "unit": "nM"}, {"measurement": "GI50", "setting": "[31]", "result": 39.3, "unit": "nM"}, {"measurement": "TGI", "setting": "[31]", "result": 298, "unit": "nM"}, {"measurement": "GI50", "setting": "[32]", "result": "< 10", "unit": "nM"}, {"measurement": "TGI", "setting": "[32]", "result": "> 100000", "unit": "nM"}, {"measurement": "GI50", "setting": "[33]", "result": "< 10", "unit": "nM"}, {"measurement": "TGI", "setting": "[33]", "result": "< 10", "unit": "nM"}, {"measurement": "GI50", "setting": "[34]", "result": "< 10", "unit": "nM"}, {"measurement": "TGI", "setting": "[34]", "result": "> 100000", "unit": "nM"}, {"measurement": "GI50", "setting": "[35]", "result": "< 10", "unit": "nM"}, {"measurement": "TGI", "setting": "[35]", "result": 37.9, "unit": "nM"}, {"measurement": "GI50", "setting": "[36]", "result": "< 10", "unit": "nM"}, {"measurement": "TGI", "setting": "[36]", "result": 175, "unit": "nM"}, {"measurement": "GI50", "setting": "[37]", "result": "< 10", "unit": "nM"}, {"measurement": "TGI", "setting": "[37]", "result": 111, "unit": "nM"}, {"measurement": "GI50", "setting": "[38]", "result": "< 10", "unit": "nM"}, {"measurement": "TGI", "setting": "[38]", "result": "< 10", "unit": "nM"}, {"measurement": "GI50", "setting": "[39]", "result": "< 10", "unit": "nM"}, {"measurement": "GI50", "setting": "[40]", "result": 36.8, "unit": "nM"}, {"measurement": "TGI", "setting": "[40]", "result": 635, "unit": "nM"}, {"measurement": "GI50", "setting": "[41]", "result": 61.1, "unit": "nM"}, {"measurement": "TGI", "setting": "[41]", "result": 3180, "unit": "nM"}, {"measurement": "GI50", "setting": "[42]", "result": "< 10.7", "unit": "nM"}, {"measurement": "TGI", "setting": "[42]", "result": 187, "unit": "nM"}, {"measurement": "GI50", "setting": "[43]", "result": 18.4, "unit": "nM"}, {"measurement": "TGI", "setting": "[43]", "result": "> 100000", "unit": "nM"}, {"measurement": "GI50", "setting": "[44]", "result": "< 10", "unit": "nM"}, {"measurement": "TGI", "setting": "[44]", "result": 13100, "unit": "nM"}, {"measurement": "GI50", "setting": "[45]", "result": "< 10", "unit": "nM"}, {"measurement": "TGI", "setting": "[45]", "result": 11500, "unit": "nM"}, {"measurement": "GI50", "setting": "[46]", "result": "< 10", "unit": "nM"}, {"measurement": "GI50", "setting": "[47]", "result": "< 10", "unit": "nM"}, {"measurement": "TGI", "setting": "[47]", "result": 14.6, "unit": "nM"}, {"measurement": "GI50", "setting": "[48]", "result": "< 10", "unit": "nM"}, {"measurement": "GI50", "setting": "[49]", "result": "< 10", "unit": "nM"}, {"measurement": "TGI", "setting": "[49]", "result": 102, "unit": "nM"}, {"measurement": "GI50", "setting": "[50]", "result": "< 10", "unit": "nM"}, {"measurement": "TGI", "setting": "[50]", "result": "< 10", "unit": "nM"}, {"measurement": "GI50", "setting": "[51]", "result": "< 10", "unit": "nM"}, {"measurement": "TGI", "setting": "[51]", "result": 116, "unit": "nM"}, {"measurement": "GI50", "setting": "[52]", "result": "< 10", "unit": "nM"}, {"measurement": "TGI", "setting": "[52]", "result": "> 100000", "unit": "nM"}, {"measurement": "GI50", "setting": "[53]", "result": "< 10", "unit": "nM"}, {"measurement": "TGI", "setting": "[53]", "result": "< 49.4", "unit": "nM"}]}]}
